According to patent US20150133426A1, “SUBSTITUTED PYRROLOPYRIMIDINES” (BAYER PHARMA AKTIENGESELLSCHAFT, priority 2012, published 2015):
Counter-ions that a name gives are not always drawn.

Target: T1, human full-length MKNK1 (Homo sapiens, UniProt Q9BUB5, T385D)
T1 construct: purchased Carna Biosciences 02-145; host or cells: insect cells, baculovirus expression system
Test: MKNK1 kinase high ATP assay (TR-FRET)
Assay type: biochemical
Conditions: high ATP (2 mM), 15 min preincubation with enzyme, GST-MKNK1 (T344D)
Experimental: MKNK1-inhibitory activity at high ATP of compounds of the present invention after their preincubation with MKNK1 was quantified employing the TR-FRET-based MKNK1 high ATP assay as described in the following paragraphs.
A recombinant fusion protein of Glutathione-S-Transferase (GST, N-terminally) and human full-length MKNK1 (amino acids 1-424 and T344D of accession number BAA 19885.1), expressed in insect cells using baculovirus expression system and purified via glutathione sepharose affinity chromatography, was purchased from Carna Biosciences (product no 02-145) and used as enzyme. As substrate for the kinase reaction the biotinylated peptide biotin-Ahx-IKKRKLTRRKSLKG (C-terminus in amide form) was used, which can be purchased e.g. from the company Biosyntan (Berlin-Buch, Germany).
For the assay 50 nL of a 100fold concentrated solution of the test compound in DMSO was pipetted into a black low volume 384well microtiter plate (Greiner Bio-One, Frickenhausen, Germany), 2 μL of a solution of MKNK1 in aqueous assay buffer [50 mM HEPES pH 7.5, 5 mM MgCl2, 1.0 mM dithiothreitol, 0.005% (v/v) Nonidet-P40 (Sigma)] was added and the mixture was incubated for 15 min at 22° C. to allow pre-binding of the test compounds to the enzyme before the start of the kinase reaction. Then the kinase reaction was started by the addition of 3 μL of a solution of adenosine-tri-phosphate (ATP, 3.3 mM=>final conc. in the 5 μL assay volume is 2 mM) and substrate (0.1 μM=>final conc. in the 5 μL assay volume is 0.06 μM) in assay buffer and the resulting mixture was incubated for a reaction time of 30 min at 22° C. The concentration of MKNK1 was adjusted depending of the activity of the enzyme lot and was chosen appropriate to have the assay in the linear range, typical concentrations were in the range of 0.003 μg/mL. The reaction was stopped by the addition of 5 μL of a solution of TR-FRET detection reagents (5 nM streptavidine-XL665 [Cisbio Bioassays, Codolet, France] and 1 nM anti-ribosomal protein […] (pSer236)-antibody from Invitrogen [#44921G] and 1 nM LANCE EU-W1024 labeled ProteinG [Perkin-Elmer, product no. AD0071]) in an aqueous EDTA-solution (100 mM EDTA, 0.1% (w/v) bovine serum albumin in 50 mM HEPES pH 7.5).
The resulting mixture was incubated for 1 h at 22° C. to allow the formation of complex between the phosphorylated biotinylated peptide and the detection reagents. Subsequently the amount of phosphorylated substrate was evaluated by measurement of the resonance energy transfer from the Eu-chelate to the streptavidine-XL. Therefore, the fluorescence emissions at 620 nm and 665 nm after excitation at 350 nm were measured in a TR-FRET reader, e.g. a Rubystar (BMG Labtechnologies, Offenburg, Germany) or a Viewlux (Perkin-Elmer). The ratio of the emissions at 665 nm and at […] was taken as the measure for the amount of phosphorylated substrate. The data were normalised (enzyme reaction without inhibitor=0% inhibition, all other assay components but no enzyme=100% inhibition).

T1 sequence (Q9BUB5 1-424 isoform Q9BUB5-2 T344D): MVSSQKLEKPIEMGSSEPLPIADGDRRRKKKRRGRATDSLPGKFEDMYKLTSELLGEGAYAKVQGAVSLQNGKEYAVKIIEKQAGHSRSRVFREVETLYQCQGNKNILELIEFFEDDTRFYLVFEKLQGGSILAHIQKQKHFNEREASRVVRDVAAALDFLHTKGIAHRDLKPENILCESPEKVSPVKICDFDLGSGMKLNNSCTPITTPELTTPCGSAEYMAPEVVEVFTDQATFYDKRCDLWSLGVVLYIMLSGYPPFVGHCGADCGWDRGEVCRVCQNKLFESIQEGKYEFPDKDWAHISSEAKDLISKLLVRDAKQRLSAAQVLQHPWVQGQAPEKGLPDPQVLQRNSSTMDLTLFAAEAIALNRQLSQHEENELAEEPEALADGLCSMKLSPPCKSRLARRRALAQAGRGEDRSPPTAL

Row | IC50 | Compound
1 | 10600 nM | CS(=O)(=O)CCCNC(=O)C1CCc2[nH]c3ncnc(Nc4ccc(C(=O)N5CCCC5)cc4)c3c2C1 (racemic) [Example 38, (RS)—N-[3-(Methylsulfonyl)propyl]-4-{[4-(pyrrolidin-1-ylcarbonyl)phenyl]amino}-6,7,8,9-tetrahydro-5H-pyrimido[4,5-b]indole-6-carboxamide]
2 | 15 nM | O=C(Nc1ccccc1)C1CCc2[nH]c3ncnc(Nc4ccc5[nH]ncc5c4)c3c2C1 (racemic) [Example 16, (RS)-4-(1H-Indazol-5-ylamino)-N-phenyl-6,7,8,9-tetrahydro-5H-pyrimido[4,5-b]indole-6-carboxamide]
3 | 231 nM | CS(=O)(=O)CCCNC(=O)C1CCc2[nH]c3ncnc(Nc4ccc5ncsc5c4)c3c2C1 (racemic) [Example 49, (RS)-4-(1,3-Benzothiazol-6-ylamino)-N-[3-(methylsulfonyl)propyl]-6,7,8,9-tetrahydro-5H-pyrimido[4,5-b]indole-6-carboxamide]
4 | 1270 nM | CS(=O)(=O)CCCNC(=O)C1CCc2[nH]c3ncnc(Nc4cccc5c4CNC5=O)c3c2C1 (racemic) [Example 81, (RS)—N-[3-(Methylsulfonyl)propyl]-4-[(1-oxo-2,3-dihydro-1H-isoindol-4-yl)amino]-6,7,8,9-tetrahydro-5H-pyrimido[4,5-b]indole-6-carboxamide]
5 | ≥ 20000 nM | c1ccc(N2CCOCC2)c(Nc2ncnc3[nH]c4c(c23)CCCC4)c1 [Example 118]
6 | 46 nM | O=C(C1CCc2[nH]c3ncnc(Nc4ccc5[nH]ncc5c4)c3c2C1)N1CC(F)(F)C1 (racemic) [Example 17, (RS)-(3,3-Difluoroazetidin-1-yl)[4-(1H-indazol-5-ylamino)-6,7,8,9-tetrahydro-5H-pyrimido[4,5-b]indol-6-yl]methanone]
7 | 20 nM | CCNC(=O)C1CCc2[nH]c3ncnc(Nc4ccc5[nH]ncc5c4)c3c2C1 (racemic) [Example 7, (RS)—N-Ethyl-4-(1H-indazol-5-ylamino)-6,7,8,9-tetrahydro-5H-pyrimido[4,5-b]indole-6-carboxamide]
8 | 7670 nM | COc1cccc(C)c1Nc1ncnc2[nH]c3c(c12)CC(C(=O)NCCCS(C)(=O)=O)CC3 (racemic) [Example 75, (RS)-4-[(2-Methoxy-6-methylphenyl)amino]-N-[3-(methylsulfonyl)propyl]-6,7,8,9-tetrahydro-5H-pyrimido[4,5-b]indole-6-carboxamide]
9 | 1730 nM | COc1ccc(Cl)cc1Sc1ncnc2[nH]c3c(c12)CC(C(=O)NCCCS(C)(=O)=O)CC3 (racemic) [Example 148, (RS)-4-[(5-Chloro-2-methoxyphenyl)sulfanyl]-N-[3-(methylsulfonyl)propyl]-6,7,8,9-tetrahydro-5H-pyrimido[4,5-b]indole-6-carboxamide]
10 | 12300 nM | O=C(O)C1CCc2[nH]c3ncnc(Nc4cc5[nH]c(=O)[nH]c5cc4Cl)c3c2C1 (racemic) [Example 237, (RS)-4-[(6-Chloro-2-oxo-2,3-dihydro-1H-benzimidazol-5-yl)amino]-6,7,8,9-tetrahydro-5H-pyrimido[4,5-b]indole-6-carboxylic acid]
11 | 113 nM | CS(=O)(=O)CCCNC(=O)C1CCc2[nH]c3ncnc(Nc4ccccc4OCC(F)F)c3c2C1 (racemic) [Example 152, (RS)-4-{[2-(2,2-Difluoroethoxy)phenyl]amino}-N-[3-(methylsulfonyl)propyl]-6,7,8,9-tetrahydro-5H-pyrimido[4,5-b]indole-6-carboxamide]
12 | 3600 nM | CCOC(=O)C1CCc2[nH]c3ncnc(N4CCc5ccccc54)c3c2C1 (racemic) [Example 173, (RS)-Ethyl 4-(2,3-dihydro-1H-indol-1-yl)-6,7,8,9-tetrahydro-5H-pyrimido[4,5-b]indole-6-carboxylate]
13 | 8 nM | CS(=O)(=O)CCCNC(=O)C1CCc2[nH]c3ncnc(Nc4ccc5[nH]ncc5c4)c3c2C1 (racemic) [Example 14, (RS)-4-(1H-Indazol-5-ylamino)-N-[3-(methylsulfonyl)propyl]-6,7,8,9-tetrahydro-5H-pyrimido[4,5-b]indole-6-carboxamide]
14 | 48 nM | CC(C)Oc1cc(F)ccc1Nc1ncnc2[nH]c3c(c12)CCC3 [Example 70, N-(4-Fluoro-2-isopropoxyphenyl)-5,6,7,8-tetrahydrocyclopenta[4,5]pyrrolo[2,3-d]pyrimidin-4-amine]
15 | 84 nM | CNC(=O)C1CCc2[nH]c3ncnc(Nc4ccccc4OC4CCCC4)c3c2C1 (racemic) [Example 189, (RS)-4-{[2-(Cyclopentyloxy)phenyl]amino}-N-methyl-6,7,8,9-tetrahydro-5H-pyrimido[4,5-b]indole-6-carboxamide]
16 | 9660 nM | CC(C)Oc1ccc(Nc2ncnc3[nH]c4c(c23)CC(C(=O)NCCCS(C)(=O)=O)CC4)cc1 (racemic) [Example 35, (RS)—N-[3-(Methylsulfonyl)propyl]-4-{[4-(propan-2-yloxy)phenyl]amino}-6,7,8,9-tetrahydro-5H-pyrimido[4,5-b]indole-6-carboxamide]
17 | 12200 nM | O=c1[nH]c2ccc(Nc3ncnc4[nH]c5c(c34)CCCC5)cc2[nH]c1=O [Example 110]
18 | 12 nM | CC(C)Oc1ccc(Cl)cc1Nc1ncnc2[nH]c3c(c12)CC(C(=O)NCCCS(C)(=O)=O)CC3 (racemic) [Example 150, (RS)-4-{[5-Chloro-2-(propan-2-yloxy)phenyl]amino}-N-[3-(methylsulfonyl)propyl]-6,7,8,9-tetrahydro-5H-pyrimido[4,5-b]indole-6-carboxamide]
19 | 26 nM | COc1cc2[nH]ncc2cc1Nc1ncnc2[nH]c3c(c12)CC(C(=O)O)CC3 (racemic) [Example 184, (RS)-4-[(6-Methoxy-1H-indazol-5-yl)amino]-6,7,8,9-tetrahydro-5H-pyrimido[4,5-b]indole-6-carboxylic acid hydrochloride (1:1)]
20 | 381 nM | CC(C)Oc1cc(F)ccc1Nc1ncnc2c1c1c(n2C)CCC(C(=O)NCCCS(C)(=O)=O)C1 (racemic) [Example 25, (RS)-4-[(4-Fluoro-2-isopropoxyphenyl)amino]-9-methyl-N-[3-(methylsulfonyl)propyl]-6,7,8,9-tetrahydro-5H-pyrimido[4,5-b]indole-6-carboxamide]
21 | 267 nM | CC(C)NC(=O)C1CCc2[nH]c3ncnc(Nc4ccccc4N4CCOCC4)c3c2C1 (racemic) [Example 202, (RS)-4-{[2-(Morpholin-4-yl)phenyl]amino}-N-(propan-2-yl)-6,7,8,9-tetrahydro-5H-pyrimido[4,5-b]indole-6-carboxamide]
22 | 313 nM | COc1ccc(Br)cc1Nc1ncnc2[nH]c3c(c12)CCCC3 [Example 128]
23 | 1740 nM | CC(C)Oc1ccc(Cl)cc1Nc1ncnc2[nH]c3c(c12)CCCC3 [Example 124]
24 | 6 nM | COc1cc(Cl)c(Cl)cc1Nc1ncnc2[nH]c3c(c12)CC(C(=O)NC1CC1)CC3 (racemic) [Example 20, (RS)—N-Cyclopropyl-4-[(4,5-dichloro-2-methoxyphenyl)amino]-6,7,8,9-tetrahydro-5H-pyrimido[4,5-b]indole-6-carboxamide]
25 | 17000 nM | CCOC(=O)C1CCc2[nH]c3ncnc(Nc4cc(Cl)ccc4OC(C)C)c3c2C1 (racemic) [Example 177, (RS)-Ethyl 4-{[5-chloro-2-(propan-2-yloxy)phenyl]amino}-6,7,8,9-tetrahydro-5H-pyrimido[4,5-b]indole-6-carboxylate]
